For data set [1], the system named is Oryza sativa (transplanted). The data set is described as follows: Safener action on transplanted rice, application by watering, visual damage assessment. The format is in vivo. Particulars: herbicide 450 g of a.i./ha, no safener, 3 days after transplanting, assessed 4 weeks after application. How it is done: Rice was sown in sandy soil in pots in a greenhouse and raised to a growth height of 24-25 cm. The rice was then transplanted into a water-covered soil and, 3 days after transplanting, treated with a herbicide or a herbicide/safener combination by watering. 4 weeks after application, plant damage was assessed visually compared with untreated controls (results see Table 9).

Data set [2] deals with corn (Zea mays). The data set is described as follows: Safener action on corn, post-emergence test, visual damage assessment. Conditions: herbicide 75 g of a.i./ha, no safener; 3-leaf stage, assessment after 3 weeks. It is filed as in vivo.
Data set [3] concerns corn (Zea mays). The description is as above. It is filed as in vivo. Particulars: no safener, 4-leaf stage, assessment after 4 weeks; for Damage [%] in corn varieties: Dea: variety Dea; for Damage [%] in corn varieties: Felix: variety Felix; for Damage [%] in corn varieties: Mutin: variety Mutin. The source says:
Corn plants, weed and weed grasses were raised to the 4- to 5-leaf stage in plastic pots outside or in the greenhouse and treated successively with herbicides and compounds of the formula I according to the invention using the post-emergence method. […] The assessment was made in percent compared with untreated controls.

In data set [4] the test system is Hordeum vulgare (barley). The data set is described as follows: Safener action on barley, post-emergence greenhouse test, visual damage assessment. Conditions: no safener.
Procedure: (§1) Seeds of wheat and barley were placed in sandy loam soil in plastic pots, raised to the 3- to 4-leaf stage in a greenhouse and then treated successively with the compounds according to the invention and the herbicides using the post-emergence method. The herbicides and the compounds of the formula I were applied in the form of aqueous suspensions or emulsions at an application rate of 300 l/ha (converted). 3-4 weeks after the treatment, the plants were assessed visually for damage of any type caused by the herbicides applied, in particular the extent of lasting growth inhibition being taken into account. The assessment was made in percentages compared with untreated controls.
(§2) Test conditions: Application at the 4-leaf stage; assessment after 4 weeks; 4 replications
Test conditions: Application at the 3-leaf stage;
assessment after 2-3 weeks; 4 replications
The test system of data set [5] is Triticum aestivum (wheat). The data set is described as follows: Safener action on wheat, post-emergence greenhouse test, visual damage assessment. It is filed as in vivo. Conditions: no safener, 4-leaf stage, assessment after 4 weeks.
Procedure: as §1, §2
Data set [6] deals with Oryza sativa (rice). The data set is described as follows: Safener action on rice (flooded pots), damage assessment. The format is in vivo. Conditions: herbicide 300 g of a.i./ha, no safener; 3-leaf stage, assessment after 3 weeks. How it is done: Rice was sown in plastic pots and raised in a greenhouse under optimum growth conditions. After emergence, the pots were filled with water to 2 cm from the top, and this flooding level was maintained throughout the experiment. At the 3- to 4-leaf stage, the plants were then treated with the herbicides and the compounds of the formula I. 3 weeks after treatment, the plants were assessed for damage of any type caused by the herbicides, in particular the extent of lasting growth inhibition and thinning being considered.

Data set [7] has as its system Triticum durum (hard wheat). The data set is described as follows: Safener action on hard wheat, post-emergence greenhouse test, visual damage assessment. It is filed as in vivo. Conditions: no safener, 4-leaf stage, assessment after 4 weeks.
Procedure: as §1, §2

Molecules are shown by their SMILES.

`COP(=S)(OC)SCC(=O)N(c1ccc(Cl)cc1)C(C)C` [H9, anilofos]: the “Damage [%] ORSA-T” value in data set [1] was found to be 50%.

Take `COc1cc(OC)nc(NC(=O)NS(=O)(=O)c2ncccc2N(C)S(C)(=O)=O)n1` [H8, 3-(4,6-dimethoxypyrimidin-2-yl)-1-[3(-N-methyl-N-methylsulfonylamino)-2-pyridylsulfonyl]urea]: the “Damage in corn [%] Felix variety” value in data set [2] is listed as 75%. The “Damage [%] in corn varieties: Dea” value is 0% in data set [3] (herbicide 25 g a.i./ha), 0% in data set [3] (herbicide 50 g a.i./ha), 10% in data set [3] (herbicide 100 g a.i./ha) and 35% in data set [3] (herbicide 200 g a.i./ha). The “Damage [%] in corn varieties: Felix” value is 25% in data set [3] (herbicide 25 g a.i./ha), 55% in data set [3] (herbicide 50 g a.i./ha), 65% in data set [3] (herbicide 100 g a.i./ha) and 70% in data set [3] (herbicide 200 g a.i./ha). For the same compound, the “Damage [%] in corn varieties: Mutin” value in data set [3] (herbicide 25 g a.i./ha) is given as 15%; in data set [3] (herbicide 50 g a.i./ha), 30%; in data set [3] (herbicide 100 g a.i./ha), 60%; in data set [3] (herbicide 200 g a.i./ha) it was 65%.

Take `COC(=O)C(C)Oc1ccc(Oc2ccc(Cl)cc2Cl)cc1` (stereo not shown) [H2, diclofop-methyl]: the “Damage [%] HV” value was 10% in data set [4] (herbicide 900 g of a.i./ha, 4-leaf stage, assessment after 4 weeks) and 40% in data set [4] (herbicide 1800 g of a.i./ha, 4-leaf stage, assessment after 4 weeks).

On to `COC(=O)c1sccc1NC(=O)Nc1nc(C)nc(OC)n1` [H7, 1-(2-methoxycarbonylthiophen-3-yl)-3-(4-methoxy-6-methyl-1,3,5-triazin-2-yl)urea], for which the “Damage [%] in corn varieties: Felix” value turned out to be 0% in data set [3] (herbicide 8 g a.i./ha), 15% in data set [3] (herbicide 15 g a.i./ha), 40% in data set [3] (herbicide 30 g a.i./ha) and 75% in data set [3] (herbicide 60 g a.i./ha). Besides, the “Damage [%] in corn varieties: Mutin” value came out at 5% in data set [3] (herbicide 8 g a.i./ha), 10% in data set [3] (herbicide 15 g a.i./ha), 30% in data set [3] (herbicide 30 g a.i./ha) and 70% in data set [3] (herbicide 60 g a.i./ha).

`COC(=O)c1ccc(I)cc1S(=O)(=O)NC(=O)Nc1nc(C)nc(OC)n1.[Na]` [H3, methyl 4-iodo-2-[3-(4-methoxy-6-methyl-1,3,5-triazin-2-yl)ureidosulfonyl]benzoate, sodium salt]: the “Damage [%] TA” value was 15% in data set [5] (herbicide 12 g of a.i./ha), 80% in data set [5] (herbicide 25 g of a.i./ha) and 70% in data set [5] (herbicide 50 g of a.i./ha).

For `CCOC(=O)[C@@H](C)Oc1ccc(Oc2nc3ccc(Cl)cc3o2)cc1` [H1, fenoxaprop-P-ethyl], the “Damage [%] TA” value in data set [5] (herbicide 100 g of a.i./ha) stood at 10%; in data set [5] (herbicide 200 g of a.i./ha) it was 30%; in data set [5] (herbicide 400 g of a.i./ha), 40%. In addition, in data set [6], the “Damage [%] ORSA” value stood at 80%. For the same compound, the “Damage [%] HV” value is recorded as 80% in data set [4] (herbicide 100 g of a.i./ha, 4-leaf stage, assessment after 4 weeks); 85% in data set [4] (herbicide 200 g of a.i./ha, 3-leaf stage, assessment after 2-3 weeks); 90% in data set [4] (herbicide 200 g of a.i./ha, 4-leaf stage, assessment after 4 weeks); 98% in data set [4] (herbicide 400 g of a.i./ha, 4-leaf stage, assessment after 4 weeks). Further, the “Damage [%] TD” value is listed as 95% in data set [7] (herbicide 100 g of a.i./ha), 95% in data set [7] (herbicide 200 g of a.i./ha) and 98% in data set [7] (herbicide 400 g of a.i./ha).

For the compound `COc1cc(OC)nc(Oc2cccnc2C(=O)OCc2ccccc2)n1` [H4, benzyl 3-(4,6-dimethoxypyrimidin-2-yloxy)pyridine-2-carboxylate], the “Damage to corn [%] Alois variety” value in data set [3] (herbicide 38 g of a.i./ha) came out at 20%; in data set [3] (herbicide 75 g of a.i./ha) it was 40%; in data set [3] (herbicide 150 g of a.i./ha), 55%; in data set [3] (herbicide 300 g of a.i./ha), 60%. For the same compound, the “Damage to corn [%] Felix variety” value in data set [3] (herbicide 38 g of a.i./ha) came to 0%; in data set [3] (herbicide 75 g of a.i./ha), 30%; in data set [3] (herbicide 150 g of a.i./ha), 50%; in data set [3] (herbicide 300 g of a.i./ha) it was 60%.

Values taken from patent publication US6482947B1, “Substituted (hetero) aryl compounds, process for their preparation, agents containing them and their use as safeners” (priority 1992, dated 2002).
